Results on 17 compounds are retold here after patent US6524842B1, “Biodegradation of gasoline oxygenates” (Envirogen, Inc., priority 2000, dated 2003).

Read-outs that look alike come from different tables or passages of the source. Where only a bound is given, the exact number is not on record here.

The test system of test [1] is strain ENV735. As to the kind of experiment: Growth substrates for ENV735. The class given is cell-based, Hydrogenophaga flava.
Test [2] concerns strain ENV735. In words: [14C]MTBE mineralization to 14CO2. The class given is cell-based, Hydrogenophaga flava. Conditions: YE-grown cells, 10 mg/L, within 24 hr. An excerpt:
Cells were collected by centrifugation, washed, and suspended in BSM to an OD550 of 1.0. […] At timed intervals air was passed through the samples and organic compounds and ^14CO2 in the effluent air were trapped (Marinucci, A. C. and R. Bartha, “Apparatus for monitoring the mineralization of volatile ^14C-labeled compounds”, Applied and Environmental Microbiology, 38:1020-1022, (1979)). Oxosol C14 (National Diagnostics, Atlanta, Ga.) served as a CO2 trapping solution and liquid scintillation cocktail. The amount of ^14CO2 produced was quantified by liquid scintillation counting.

In test [3] the test system is strain ENV735. In words: MTBE degradation assays with ENV735 cells. The class given is cell-based, Hydrogenophaga flava.
Another test concerns ENV 735. In words: Membrane bioreactor (MBR1, MBR2) MTBE degradation. More on the design: species or system Hydrogenophaga flava. The method, then: A calculated solids retention time (SRT) of 160 days was maintained by removing a portion of the reactor contents each day. The dissolved oxygen concentration in the reactor was maintained at ˜2 mg/L by adding air.
Test [4] concerns ENV 735-containing culture from MBR1. In words: Fluid bed bioreactor (FBR) MTBE degradation. Particulars: flow rate increased 3-fold, 1 hr HRT. The protocol:
A laboratory-scale FBR was constructed from a glass column with Teflon and stainless steel tubing and fittings to minimize abiotic losses. […] The carbon was fluidized to an expanded bed height of 125% of the original bed height by using a gear pump in the recycle line. Contaminated water was fed at a rate of 5.6 to 17 mL/min using a peristaltic pump, corresponding to hydraulic retention times (HRTs) of approximately 3 to 1 h, respectively. The HRT was calculated based on expanded bed volume and feed flow rate (assumes no significant biodegradation occurred in other wetted areas of the reactor).

Test [5] has as its system hydrogen-oxidizing microorganism. In words: Bioreactor laboratory testing, continuous operation. Conditions: hydraulic retention time of 2.5 hr to 3 days. The source says:
Batch operation can be initiated by inoculating the reactor with the hydrogen-oxidizing microorganism and then adding tertiary butyl alcohol, for example, to a final concentration of from 0.1 to 1% (v/v). The organisms are aerated and allowed to grow until no tertiary butyl alcohol remains in the culture medium. Additional tertiary butyl alcohol can then be added to further increase biomass levels. After sufficient biomass is obtained, a small amount of contaminant (e.g., MTBE) can be added to acclimate the organisms. Additional contaminant can be added after depletion of the prior addition. When sufficient degradation rates are achieved, the reactor can be operated in a continuous mode. Preferably, during continuous and batch operation, the reactor should be operated at a temperature of between 25 and 37° C., with the pH in the range of 6.8 to 7.2, and a dissolved oxygen concentration >2 mg/L. Hydraulic retention time within the reactor should be adjusted to allow sufficient time for degradation of the target compound to below treatment standards. […] Furthermore, the volatile suspended solids (biomass) concentration should be maintained at a relatively high concentration, preferably from 1,000 to 30,000 mg/l depending on the contaminant loading rate.

Test [6] deals with anaerobic sediment samples. Particulars: the one active anaerobic sediment sample; cited from earlier work.
Test [7] has as its system strain ENV735. As to the kind of experiment: TBA degradation by ENV735 cells. The class given is cell-based, Hydrogenophaga flava.
Where [8] appears, read: growth of ENV735 on the substrate.

Turning to `CO` [Methanol], in the test with strain ENV735 [1] (setting [8]), the Growth result is recorded as “−”.

On to `CC(=O)[O-].[Na+]` [Sodium acetate], for which the Growth result in the test on strain ENV735 [1] (setting [8]) was “+/−”. Same read-out and setting: the value for `CCCO` [1-Propanol] was “+/−”. In the case of `COC(C)(C)C` [[^14C]MTBE], in the test on strain ENV735 [2], the “added [14C]MTBE recovered as 14CO2” value was “Approximately 80%”. `CCC` [Propane]: the Growth result in the test on strain ENV735 [1] (setting [8]) is “+/−”. On the same count and under the same terms, the value for `CC(C)(O)C(=O)O` [2-Hydroxy isobutyric acid] was “+”; that for Casein was “+”. Turning to `[HH]` [H2, hydrogen], in the test on strain ENV735 [1] (strain ENV735), the “Growth on H2 as a sole energy source” value is “grew readily”. Further, the “effect of presence of H2 on MTBE degradation” value in the test on strain ENV735 [3] (strain ENV735) is on record as “not inhibited”.

With `COC(C)(C)C` [MTBE, methyl-tert-butyl ether], in the test on strain ENV735 [1] (setting [8]), the Growth result is recorded as “+”. In the test with strain ENV735 [3] (30° C., YE-grown cells, 25 mg/L MTBE), the “initial maximum MTBE oxidation rate” value was 86 nmole MTBE/min./mg total cell protein. For the same compound, the MTBE removal rate with ENV 735 (MBR1, 1 d HRT, influent ˜1000 mg/L) was 42 mg/L/h; in the test with ENV 735 (MBR2, influent ˜2000 mg/L), 28 mg/L/h. Further, the “MTBE stripping as share of MTBE loss” value with ENV 735 (effluent air of MBRs) is on record as < 5%. Further, in test [4], the “removal of added MTBE” value was > 90%. In test [5], the “degradation of influent MTBE” value was > 90%. Moreover, in test [6], the “transformation of MTBE” value is “about 50%”.

In the case of `CCC(C)C` [Iso-Pentane], in the test on strain ENV735 [1] (setting [8]), the Growth result is given as “−”.

`CC(=O)C(=O)O` [Pyruvic acid]: the Growth entry in the test with strain ENV735 [1] (setting [8]) is listed as “+/−”. Still for that read-out and setting: the value for `CC(O)C(=O)O` (centres unmarked) [Lactic acid] was “+/−”; that for `CC(C)O` [2-Propanol] was “−”; that for `OC[C@H]1O[C@@](CO)(O[C@H]2O[C@H](CO)[C@@H](O)[C@H](O)[C@H]2O)[C@@H](O)[C@@H]1O` [Sucrose] was “+++”. The same measure, in the same setting: the value for `N[C@@H](CCC(=O)O)C(=O)O` [Glutamic acid] was “+/−”.

Regarding `CC(C)(C)O` [TBA, tertiary-butyl alcohol], the Growth entry in the test with strain ENV735 [1] is reported as “+++”. Besides, the “initial TBA degradation rate” value with strain ENV735 [7] was 30 nmoles TBA/min./mg cell protein. In the case of `CCC(=O)O` [Propionic acid], the Growth entry with strain ENV735 [1] (setting [8]) is “−”.
